The text below walks through data of PubChem BioAssay AID2745 (NMMLSC, 2010).

The source made the active and inactive calls. No rule for the calls is given here.

This test in a line: concentration series on yeast TOR reporter LAP4 – cell-based, MLPCN hits, flow cytometry, dose response (AID 2745).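 Also: yeast exposed to compound for three hours at 30 degrees.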 The following applies: S. cerevisiae LAP4-GFP reporter, flow cytometry fluorescence; at 33 µM (top of the series).
As to `O=C(c1ccc(Cl)cc1)N1CCN(c2cccc3[nH]ccc23)CC1`, the LAP4-GFP fluorescence (kMESF) is 6.45 kMESF (inactive).
With `COc1cc(/C=C2\C(=O)ON=C2c2ccccc2)cc(OC)c1OC`, the LAP4-GFP fluorescence (kMESF) is 6.41 kMESF (inactive).
As for `CSc1nnc2c3cc(F)ccc3n(C)c2n1`, the figure is 2.93 kMESF (inactive).
Then `C[n+]1ccc(/C=C/c2c[nH]c3ccccc23)cc1`, with 9.29 kMESF (inactive); and `O=C(OCC(=O)N1CCN(C(=O)c2ccco2)CC1)c1cc(-c2ccc(Cl)c(Cl)c2Cl)nc2ccccc12`, with 4.61 kMESF (inactive).
As to `O=C(Nc1nnc(-c2ccc(F)cc2)o1)c1cccc([N+](=O)[O-])c1`, the LAP4-GFP fluorescence (kMESF) is 6.91 kMESF (inactive).
As for `COc1ccc(C(=O)/C=C2/C(=O)Nc3ccccc32)c(OC)c1`, the LAP4-GFP fluorescence (kMESF) is 10.1 kMESF (inactive).
Then `C#CCOCCOCCOCCNc1nc(N2CCN(C(=O)CCCCCCCCCCNC(=O)[C@H](CCCCN)n3cc(CCCC(=O)O)nn3)CC2)nc(N2CCN(C(=O)CCCCCCCCCCNC(=O)[C@H](CCCN=C(N)N)n3cc(C[C@@H](C)CC)nn3)CC2)n1`, with 5.16 kMESF (inactive); and `O=c1c(-c2ccc(Cl)cc2)[n+]([O-])c2ccccc2n1O`, with 16.1 kMESF (inactive); and `O/C=c1\ccc2cccc3nc(C(F)(F)F)nc1c23`, with 15.8 kMESF (inactive).
`CC(C)[C@@]1(c2ccccc2)ON(c2ccccc2C(F)(F)F)C1=O`: the LAP4-GFP fluorescence (kMESF) is 3.43 kMESF (inactive).
As for `COc1cc(/C=C2/C(=O)ON=C2c2ccccc2)ccc1O`, the figure is 9.39 kMESF (inactive); as for `CC(C)[C@@]1(c2ccc(Cl)cc2)ON(c2ccccc2C(F)(F)F)C1=O`, 3.53 kMESF (inactive).
Then `O=c1c2cnn(-c3ccccc3)c2ncn1Cc1ccco1`, with 2.63 kMESF (inactive).
Then `C=CCn1c(C)c(/C=C/c2cc[n+](C)cc2)c2ccccc21`, with 10.8 kMESF (inactive); and `Cc1c(N2C(=O)/C(=C\c3ccccc3O)SC2=S)c(=O)n(-c2ccccc2)n1C`, with 10.8 kMESF (inactive).
Regarding `Fc1cccc(Nc2ncnc3c2cnn3-c2ccccc2)c1`, the LAP4-GFP fluorescence (kMESF) was 5.86 kMESF (inactive).
Then `O=C(/C=C/c1ccnc2ccccc12)c1cccs1`, with 11.4 kMESF (inactive).
Consider `O=C(Oc1ccnc2cc(Cl)ccc12)N1CCOCC1`, for which the LAP4-GFP fluorescence (kMESF) was 2.63 kMESF (inactive).
As for `COc1ccc(NC(=O)/C(C#N)=C/c2ncc([N+](=O)[O-])n2C)c(OC)c1`, the figure is 9.76 kMESF (inactive).
As for `COc1ccc(-c2cc3cc(C(=O)O)ccn3c2C(=O)c2ccccc2)cc1`, the figure is 6.45 kMESF (inactive).
For `Oc1c(CN2CCN(c3ccc(F)cc3)CC2)cc(Cl)c2cccnc12`, the LAP4-GFP fluorescence (kMESF) is 13.1 kMESF (inactive).
Then `Cc1cccc(C(=O)NNC(=S)NC(=O)c2ccccc2)c1`, with 9.62 kMESF (inactive); and `O=C1C(Cl)=C(NCCc2ccccc2)C(=O)N1CCc1ccccc1`, with 5.91 kMESF (inactive); and `CCC(C)/C(C)=N/NC(=O)c1ccc(COc2ccc(Cl)c(C)c2)cc1` (stereo not drawn), with 4.7 kMESF (inactive).
As for `O=C(O)c1cccc(S(=O)(=O)Nc2ccc(S(=O)(=O)N3CCOCC3)cc2)c1`, the figure is 3.38 kMESF (inactive); as for `O=C(O)c1ccn2c(C(=O)c3ccccc3)c(-c3ccccc3)cc2c1`, 7.25 kMESF (inactive); as for `O=C(/C=C/c1cccc(Cl)c1)c1nc2ccccc2[nH]1`, 4.71 kMESF (inactive).
Then `C=CCN1C(=O)/C(=C/c2cccs2)C(=O)NC1=S`, with 4.47 kMESF (inactive); and `Cc1ccc(/C=C/C(=O)c2ccc([N+](=O)[O-])o2)cc1`, with 9.71 kMESF (inactive).
For the molecule `O=C1CCN(S(=O)(=O)c2ccccc2)CCN1CCOCc1ccc(F)cc1`, the LAP4-GFP fluorescence (kMESF) was 2.43 kMESF (inactive).
As to `O=C(Nc1ccc(N2CCOCC2)cc1)C1CCN(S(=O)(=O)c2ccc3c(c2)OCCO3)CC1`, the LAP4-GFP fluorescence (kMESF) is 3.78 kMESF (inactive).
As for `O=C(NOC(=O)c1ccccc1)c1ccccc1`, the figure is 10.6 kMESF (inactive); as for `Nc1ccc2ccc3cccc[n+]3c2c1`, 10.3 kMESF (inactive).
As for `CCCc1cc(N2CCN(c3ccccn3)CC2)n2nc(C)c(-c3ccccc3)c2n1`, the figure is 5.75 kMESF (inactive); as for `O=C(c1ccccn1)c1conc1C(=O)c1ccc(Br)cc1`, 9.07 kMESF (inactive); as for `O=c1[nH]c(-c2ccc(Cl)cc2)cs1`, 3.03 kMESF (inactive).
As to `O=C1CC(c2ccccc2)=NN1c1nc(-c2ccccc2)cs1`, the LAP4-GFP fluorescence (kMESF) is 3.94 kMESF (inactive).
As for `COc1ccc(CCNC2=C(Cl)C(=O)N(CCc3ccc(OC)c(OC)c3)C2=O)cc1OC`, the figure is 5.91 kMESF (inactive); as for `COc1ccccc1-c1nc2s/c(=C\c3cccs3)c(=O)n2n1`, 5.46 kMESF (inactive).
Then `CC(OC(=O)c1ccco1)C(=O)Nc1nc(-c2ccccc2)cs1` (stereo not drawn), with 3.33 kMESF (inactive); and `CN(C)NC(=S)Nc1ccc(S(=O)(=O)N2CCCCC2)cc1`, with 3.13 kMESF (inactive).
As for `CCCCc1ccc(/C=C2/C(=O)ON=C2c2ccccc2)s1`, the figure is 3.67 kMESF (inactive); as for `CC(=O)Oc1ccc(/C=c2\sc3ncnn3c2=O)cc1`, 10.1 kMESF (inactive); as for `COc1ccc(CCNC2=C(Cl)C(=O)N(CCc3ccccc3)C2=O)cc1OC`, 3.31 kMESF (inactive).
Regarding `COc1ccc2c(c1)c1nnc(SC)nc1n2C`, the LAP4-GFP fluorescence (kMESF) was 4.19 kMESF (inactive).
As for `Nc1c(C(=O)c2cccs2)sc2nsc(SCCN3CCCCC3)c12`, the figure is -1.87 kMESF (inactive); as for `Cc1cc(NC(=O)c2cccnc2Cl)ccc1NC(=O)c1cc2ccccc2o1`, 3.41 kMESF (inactive).
In the case of `CC(C)C[C@]1(c2ccccc2)ON(c2ccccc2C(F)(F)F)C1=O`, the LAP4-GFP fluorescence (kMESF) was 2.53 kMESF (inactive).
With `Cc1cccc(OCCN2CSC(=S)N(C)C2)c1`, the LAP4-GFP fluorescence (kMESF) was 9.83 kMESF (inactive).
As for `Nc1ccccc1SC(C[N+](=O)[O-])c1ccccc1` (stereo not drawn), the figure is 11.5 kMESF (inactive); as for `CCN1/C(=C/C=C/c2sc3ccccc3[n+]2CC)Sc2ccccc21`, 7.72 kMESF (inactive).
As for `Cc1[nH][nH]c(=O)c1C(c1ccc(-c2ccc(Cl)c(Cl)c2)o1)c1c(C)[nH][nH]c1=O`, the figure is 6.01 kMESF (inactive).
Turning to `COc1ccc(OC)c(S(=O)(=O)ON2C(=O)c3ccccc3C2=O)c1`, the LAP4-GFP fluorescence (kMESF) is 1.75 kMESF (inactive).
Then `N#C/C(=C\c1cc(Br)ccc1F)C(=O)NC1CC1`, with 18.3 kMESF (inactive).
Then `O=C(Nc1ccccc1)ON=C1CCCC1`, with 4.79 kMESF (inactive).
For `O=C(Nc1cccc(-c2csc(Nc3ccccc3)n2)c1)c1ccccc1`, the LAP4-GFP fluorescence (kMESF) was 4.18 kMESF (inactive).
As for `O=[N+]([O-])c1ccc(Sc2nc3ccccc3o2)c([N+](=O)[O-])c1`, the figure is 4.88 kMESF (inactive); as for `O=C(C#Cc1cccc([N+](=O)[O-])c1)c1ccccc1`, 8.01 kMESF (inactive); as for `C=C1C(O)[C@@H]2O[C@]3(CC[C@H](/C=C/C(C)[C@@H]4CC(C)=CC5(O[C@H](C[C@@](C)(O)C(=O)O)CCC5O)O4)O3)CC[C@H]2O[C@@H]1C(O)CC(C)[C@H]1OC2(CCCCO2)CCC1C` (stereo partly drawn), 11.7 kMESF (inactive).
Then `CN(C)c1ccc(N=Cc2nc(-c3ccccc3)oc2OC(=O)c2ccccc2)cc1`, with 4.09 kMESF (inactive); and `Cc1cc(O)c(C(=O)/C=C/c2c(F)c(F)c(F)c(F)c2F)c(=O)o1`, with 7 kMESF (inactive); and `COc1cc(CNC(=O)CCCCCCC(C)C)ccc1O`, with 3.74 kMESF (inactive).
Then `C[C@@]12C(=O)OC(=O)[C@]1(C)C1CCC2O1`, with 9.15 kMESF (inactive).
With `Cc1ccc(C(=O)/C=C/C(=O)c2ccc(C)cc2)cc1`, the LAP4-GFP fluorescence (kMESF) is 6.7 kMESF (inactive).
As for `CCOC(=O)Cn1cc(/C=C/[N+](=O)[O-])c2ccccc21`, the figure is 8.42 kMESF (inactive); as for `Cc1cc(C)c(OCC(=O)Nc2nc(-c3ccccn3)cs2)c(C)c1`, 5.78 kMESF (inactive).
As for `COc1ccc(/C=C/C(=O)c2cc(Br)ccc(=O)c2O)cc1`, the figure is -33.8 kMESF (inactive); as for `O=[N+]([O-])c1ccc(S(=O)(=O)c2ccccc2)nc1`, 9.63 kMESF (inactive); as for `C#CCOc1c(Br)cc(/C=C2/C(=O)ON=C2C)cc1OC`, 12.2 kMESF (inactive).
Then `Oc1c(Br)cc(Br)cc1C=Nc1ccc2[nH]ncc2c1`, with 13.1 kMESF (inactive); and `Cc1ccc(/C=C2\SC(=S)N(Cc3ccccc3)C2=O)o1`, with 18.1 kMESF (inactive); and `O=C(/C=C/c1cccc([N+](=O)[O-])c1)c1ccc([N+](=O)[O-])o1`, with 2.78 kMESF (inactive).
Turning to `O=C(NC(=S)NNC(=O)c1ccc(Cl)cc1Cl)c1cccnc1`, the LAP4-GFP fluorescence (kMESF) was 4.37 kMESF (inactive).
As for `Cc1ccc(/C=C2\SC(=S)N(CC3CCCO3)C2=O)o1` (stereo not drawn), the figure is 4.89 kMESF (inactive).
Then `COc1ccc(NC2=C(Cl)C(=O)N(CCc3ccccc3)C2=O)cc1`, with 5.81 kMESF (inactive); and `CCOc1ccc(NC2=C(Cl)C(=O)N(Cc3ccccc3)C2=O)cc1`, with 6.11 kMESF (inactive).
As to `CCCCC(=O)NC(=S)NNC(=O)CCc1ccccc1`, the LAP4-GFP fluorescence (kMESF) is 8.13 kMESF (inactive).
